Zones of inhibition and MIC data for five substances are collected here from patent US7893196B2, “Polypeptides having antimicrobial activity and polynucleotides encoding same” (Novozymes Aderium Biotech A/S, priority 2004, dated 2011).

Type in all cases: cell-based
The subject of one experiment is M. luteus ATCC 9341. Briefly: Radial diffusion assay. To be noted: up-concentrated S. cerevisiae supernatants. As for the experimental part:
(§1) The supernatants described above in Example 10 were analyzed in a radial diffusion assay following a previously published protocol for detection of antimicrobial activity (Lehrer et al. (1991), Ultra sensitive assays for endogenous antimicrobial polypeptides, J Immunol Methods 137: 167-173). Target bacteria (10^6 colony forming units (CFU)) were added to 10 ml of underlay agarose (1% low electro-endosmosis agarose, 0.03% Trypticase soy broth, 10 mM sodium phosphate, pH 7.4, 37 degrees Celsius). Suspension was solidified on an INTEGRID Petri Dish (Becton Dickinson Labware, NJ). A 3 mm Gel Puncher was used to make holes in the underlay agarose (Amersham Pharmacia Biotech, Sweden). Samples were added to the holes and incubated at 37 degrees Celsius, 3 hours. An overlay was poured on top and the plate was incubated overnight (LB media, 7.5% Agar). Antimicrobial activity was seen as bacterial clearing zones around the wells. Living cells was counterstained by adding 10 ml, 0.2 mM MTT (3-(4,5-Dimethylthiazol-2-yl)-2,5-diphenyltetrazolium bromide Thiazolyl blue). All standard protocols has been described elsewhere (Sambrook, Fritsch, and Maniatis, 1989).
(§2) The results in Table 2 show zones of inhibition of up-concentrated samples against three ATCC strains.

The subject of another experiment is B. subtilis ATCC 6633. Briefly: Radial diffusion assay. To be noted: up-concentrated S. cerevisiae supernatants. As for the experimental part: as §1, §2
A further experiment has as its system S. carnosus ATCC 51365. Briefly: Radial diffusion assay. To be noted: up-concentrated S. cerevisiae supernatants. As for the experimental part: as §1, §2
Experiment [1] concerns Streptococcus pyogenes, ATCC 12344. Briefly: MIC microdilution assay (NCCLS/CLSI). To be noted: tested 0.06-32 μg/ml. As for the experimental part: (§3) Purified Oystrisin and Piceasin were evaluated for antimicrobial activity in a microdillution assay. The Minimal Inhibitory Concentration (MIC) was determined following the NCCLS/CLSI guidelines from CLSI (Clinical and Laboratory Standards Institute).
(§4) Oystrisin and Piceasin were tested at the following concentrations: 32; 16; 8; 4; 2; 1; 0.50; 0.25; 0.13; and 0.06 μg/ml.

The subject of experiment [2] is Staphylococcus aureus, ATCC 43300 (MRSA). Briefly: MIC microdilution assay (NCCLS/CLSI). To be noted: tested 0.06-32 μg/ml. As for the experimental part:
as §3, §4
A general note: In broth dilution the organism is exposed to a series of concentrations in liquid medium.

Experiment [3] deals with Staphylococcus epidermidis, ATCC 12228. Briefly: MIC microdilution assay (NCCLS/CLSI). To be noted: tested 0.06-32 μg/ml. As for the experimental part:
as §3, §4

The subject of experiment [4] is Staphylococcus aureus, ATCC 29213 (MSSA). Briefly: MIC microdilution assay (NCCLS/CLSI). To be noted: tested 0.06-32 μg/ml. As for the experimental part: as §3, §4
The test system of experiment [5] is Streptococcus pneumoniae, ATCC 49619. Briefly: MIC microdilution assay (NCCLS/CLSI). To be noted: tested 0.06-32 μg/ml. As for the experimental part:
as §3, §4

In experiment [6] the test system is Staphylococcus carnosus, ATCC 51365. Briefly: MIC microdilution assay (NCCLS/CLSI). To be noted: tested 0.06-32 μg/ml. As for the experimental part: as §3, §4

One may read the MIC as the least concentration at which growth counts as inhibited. High values mean a need for much substance, low ones inhibition by little substance.

A value given as a limit tells only on which side of the number the result lay.

As to “Gibbosin: the polypeptide shown as amino acids 1 to 38 of SEQ ID NO:6; Mesobuthus gibbosus defensin (MKTIVLLFVLALVFCTLEMGMVEAGFGCPFNQGRCHRH; listed as Mesobuthus gibbosus)”, the zones of inhibition in the experiment on M. luteus ATCC 9341 was 6 mm; with B. subtilis ATCC 6633, 8 mm; in the experiment on S. carnosus ATCC 51365, 9 mm.
Consider “Oystrisin: the polypeptide shown as amino acids 1 to 43 of SEQ ID NO:8; Crassostrea gigas defensin (MKVFVLLTLAVLLMVSADMAFAGFGCPGNQLKCNNHCKSISCR; Crassostrea gigas)”, for which the MIC is 0.03 µg/mL in experiment [1]; 16 µg/mL in [2]; 32 µg/mL in [3]; 32 µg/mL in experiment [4]; 0.13 µg/mL in experiment [5]; 0.5 µg/mL in [6].
For “Piceasin: the polypeptide shown as amino acids 1 to 40 of SEQ ID NO:2; Picea glauca defensin (MKFTISIIAALAFFAQGIVAAPAPIPEAAAVAAPEAEPKA; listed as Picea glauca)”, the MIC is 1 µg/mL in experiment [1]; above 32 µg/mL in experiment [2]; above 32 µg/mL in [3]; above 32 µg/mL in [4]; 16 µg/mL in [5]; 16 µg/mL in experiment [6].
With “Virgisin-1: the polypeptide shown as amino acids 1 to 40 of SEQ ID NO:4; Crassostrea virginica defensin (MKVFVLLTIAVMLMVSADVALAGFGCPLNRYQCHSHCQSI; listed as Crassostrea virginica)”, the results for the zones of inhibition with M. luteus ATCC 9341, in the experiment with B. subtilis ATCC 6633 and in the experiment with S. carnosus ATCC 51365 were 5 mm, 6 mm and 7 mm, respectively.
For the substance “Virgisin-2: the polypeptide shown as amino acids 1 to 42 of SEQ ID NO:10; Crassostrea virginica defensin (MKVFVLLTIAVMLLVSADVATADNGCPRRPRICHNRCIYKGR; listed as Crassostrea virginica)”, the zones of inhibition worked out at 0 mm in the experiment with M. luteus ATCC 9341, 5 mm with B. subtilis ATCC 6633 and 8 mm with S. carnosus ATCC 51365.
